This note sets out measurements from PMC6405172, “In vitro activity and mode of action of phenolic compounds on Leishmania donovani” (PLoS Neglected Tropical Diseases, 2019).

What all share (format): cell-based
Data set [1] relates to Leishmania donovani promastigotes. Description: Promastigote viability assay (MTT). As to conditions: for Selectivity Index (CC50/IC50), promastigotes: CC50 Raw 264.7 / IC50 promastigotes; for IC50: Leishmania donovani, read-out: Promastigotes IC50 (μM) ± SD. The protocol: The MTT assay was done as previously described. Briefly, promastigotes (2 x 10^5 cells) were cultured in freshly prepared M-199 medium supplemented with 10% heat inactivated fetal bovine serum in the presence or absence of varying concentrations of the phenolic compounds (0–50 μg/mL) for 72 hours at 25°C. Amphotericin B (0–50 μg/mL) and deferoxamine (0–50 μg/mL) were used as positive controls. After incubation, 5 mg/mL MTT solution was added to the promastigotes in each well and incubated for 3 hours at 25°C. In this assay, the yellow tetrazolium MTT dye was reduced to insoluble formazan crystals (purple color) in living cells using NADH as their reducing agent. Formazan crystals formed after incubation were solubilized with acidified isopropanol and incubated at 37°C for 30 min. The change in color from yellow to purple was read at an absorbance of 570 nm using Thermo Scientific Varioskan LUX. The cell viability and IC50 were determined from the concentration response curve generated using GraphPad Prism 6.0 Software.

Data set [2] can be described thus: Cytotoxicity of compounds on mammalian cells (MTT). Conditions: mouse, Raw 264.7 cells, read-out: Macrophages CC50 (μM) ±SD. On the procedure: Raw 264.7 cells were seeded into 96-well plates at (1 x 10^6 cells) in DMEM supplemented with 10% FBS, 100 μg/mL streptomycin, 100 u/mL penicillin-G, 2g/L NaHCO3 and incubated at 37°C for 24 hours in 5% CO2. The cells were treated with 0–50 μg/mL concentrations of the phenolic compounds for 48 hours at 37°C in 5% CO2. Deferoxamine and amphotericin B at 0–50 μg/mL concentrations were used as positive controls. Cell viability was estimated by measuring the mitochondria oxidative activity by MTT assay and absorbance was read at 570 nm using Thermo Scientific Varioskan LUX. Selectivity index (SI) was calculated as the ratio of the CC50 to IC50 values.

The subject of data set [3] is Leishmania donovani intracellular amastigotes. Description: Intracellular amastigote assay in infected RAW 264.7 cells. As to conditions: for Selectivity Index (CC50/IC50), amastigotes: CC50 Raw 264.7 / IC50 intracellular amastigotes; for IC50: Leishmania donovani. On the procedure:
Amastigote cultures were prepared as reported by Jain and colleagues. Briefly, Raw 264.7 cells (4 x 10^7 cells) were seeded in 4 chamber slides and 1 x 10^7 cells in 96 well plates and incubated for 24 hours at 37°C in 5% CO2. The RAW 264.7 cells were infected with metacyclic promastigotes (1 x 10^8 cells) at an infection ratio of 1:10 macrophage: parasites and incubated for 24 hours at 37°C in 5% CO2. The overlying medium was removed, and the monolayer intracellular amastigotes were carefully washed four times with serum free M199 to remove free parasites. Freshly prepared M199 containing 10% FBS and the test compounds at concentrations ranging from 0–50 μg/mL were added to the infected cells and incubated for 48 hours at 37°C in 5% CO2. Triplicate incubations were performed in all the experiments. The chamber slides were washed thrice after incubation with M199 without FBS. The slides were then fixed in absolute methanol for 30 sec, rehydrated in 1x PBS for 5 min and stained with DAPI for 15 min. The slides were viewed by fluorescence microscopy and the number of infected macrophages counted using ImageJ Software to determine the infectivity index and IC50 values for amastigotes.
The infected RAW 264.7 cells in the 96 wells microtiter plates were also incubated for 48 hours and washed thrice as above. Sodium dodecyl sulfate (SDS) of concentration 0.05% was added to the wells for 30 sec for controlled lysis with M199 and 10% FBS. After the 30 sec, M199 with 10% FBS was added and the plates incubated at 25°C for 72 hours for the differentiation of the rescued amastigotes to promastigotes. Following incubation, the amastigotes were subjected to MTT assay and the absorbance obtained were used to estimate IC50 values of the compounds against the amastigote forms.

Where [4] appears, read: RAW264.7, intracellular amastigotes in RAW 264.7 cells, 48 hours, read-out: Amastigotes IC50 (μM) ± SD.

Where two headings read alike, the source gives them in different places.

By IC50 is commonly meant the concentration at which inhibition is half-maximal. Broadly, the CC50 is the concentration giving 50% cytotoxicity. On to `COc1cc(/C=C/C(=O)O)ccc1O` [Ferulic acid, ferulic acid], for which the “Selectivity Index (CC50/IC50), promastigotes” value in data set [1] amounted to 5.02. Besides, the 50% inhibitory concentration (IC50) was determined as 69 ± 0.01 µM in data set [1] (MTT, 72 hours at 25°C) and 54.98 ± 0.01 µM in data set [3] (RAW264.7, 48 h, intracellular amastigotes in RAW 264.7 cells, 48 hours, read-out: Amastigotes IC50 (μM) ± SD). The CC50 at 48 h in data set [2] was determined as 346.7 ± 0.01 µM. Moreover, the “Selectivity Index (CC50/IC50), amastigotes” value in data set [3] is listed as 6.30.

As to `O=C(O)c1ccccc1O` [Salicylic acid, salicylic acid], the “Selectivity Index (CC50/IC50), promastigotes” value in data set [1] is 0.83. The concentration for half-maximal inhibition (IC50) in data set [1] (MTT, 72 hours at 25°C) is 75.4 ± 0.02 µM; in data set [3] (setting [4]), 90.65 ± 0.04 µM. Further, in data set [2] (Raw 264.7 macrophage cells), the CC50 at 48 h came out at 62.99 ± 0.01 µM. The “Selectivity Index (CC50/IC50), amastigotes” value in data set [3] was found to be 0.69.

In the case of `COc1cc(C(=O)O)ccc1O` [Vanillic acid, vanillic acid], in data set [1], the “Selectivity Index (CC50/IC50), promastigotes” value came out at 0.19. Further, the IC50 in data set [1] (MTT, 72 hours at 25°C) was 68.97 ± 0.02 µM; in data set [3] (setting [4]), 69.97 ± 0.02 µM. The CC50 at 48 h in data set [2] was found to be 13.15 ± 0.01 µM. The “Selectivity Index (CC50/IC50), amastigotes” value in data set [3] came out at 0.19.

In the case of `O=C(/C=C/c1ccc(O)c(O)c1)O[C@@H]1C[C@](O)(C(=O)O)C[C@@H](O)[C@H]1O` [Chlorogenic acid, chlorogenic acid], in data set [1], the “Selectivity Index (CC50/IC50), promastigotes” value was found to be 1.11. Moreover, the IC50 was 53.92 ± 0.03 µM in data set [1] (MTT, 72 hours at 25°C) and 53.75 ± 0.4 µM in data set [3] (setting [4]). The CC50 at 48 h in data set [2] (Raw 264.7 macrophage cells) is 59.9 ± 0.02 µM. Also, in data set [3], the “Selectivity Index (CC50/IC50), amastigotes” value amounted to 1.11.

As for `O=C(O)C=Cc1ccc(O)cc1` [p-Coumaric acid], the “Selectivity Index (CC50/IC50), promastigotes” value in data set [1] is recorded as 4.24. Also, the IC50 in data set [1] (MTT, 72 hours at 25°C) is 76.09 ± 0.01 µM; in data set [3] (setting [4]), above 100 µM. Besides, the CC50 at 48 h in data set [2] was found to be 322.6 ± 0.15 µM.

Regarding `O=C(O)/C=C/c1ccc(O)c(O)c1` [Caffeic acid, caffeic acid], in data set [1], the “Selectivity Index (CC50/IC50), promastigotes” value is listed as 2.21. Further, the IC50 in data set [1] (MTT, 72 hours at 25°C) is 58.77 ± 0.01 µM; in data set [3] (setting [4]) it was 56.77 ± 0.01 µM. In addition, the 50% cytotoxic concentration (CC50) at 48 h in data set [2] (Raw 264.7 macrophage cells) was 129.92 ± 0.01 µM. Also, the “Selectivity Index (CC50/IC50), amastigotes” value in data set [3] was found to be 2.29.

For the molecule `O=C(O)c1cc(O)c(O)c(O)c1` [Gallic acid, gallic acid], in data set [1], the “Selectivity Index (CC50/IC50), promastigotes” value is reported as 0.17. The half-maximal inhibitory concentration (IC50) in data set [1] (MTT, 72 hours at 25°C) is 198 ± 0.03 µM; in data set [3] (setting [4]), 54.65 ± 0.25 µM. Also, the cytotoxic concentration (CC50) at 48 h in data set [2] stood at 33.76 ± 0.02 µM. In data set [3], the “Selectivity Index (CC50/IC50), amastigotes” value came out at 0.60.

In the case of `O=C(O)c1ccc(O)c(O)c1` [Protocatechuic acid, protocatechuic acid], the “Selectivity Index (CC50/IC50), promastigotes” value in data set [1] is 7.05. Also, the 50% inhibitory concentration (IC50) in data set [1] (72 h) was 72.54 ± 0.01 µM; in data set [3] (RAW264.7, 48 h, read-out: Amastigotes IC50 (μM) ± SD, intracellular amastigotes in RAW 264.7 cells, 48 hours), above 100 µM. Further, in data set [2], the half-maximal cytotoxic concentration (CC50) at 48 h came out at 511.9 ± 0.01 µM.
